± gives the expanded uncertainty stated by the source.
Test: xn = mol fraction of the nth substance listed
Details: 298.15 K, 101 kPa, Liquid; for speed of sound: Linear variable-path acoustic interferometer; for mass density: Vibrating tube method

C1CCOC1 [tetrahydrofuran] + Cc1cccc([N+](=O)[O-])c1
x1 = 1
Details	mass density [kg/m3]	speed of sound [m/s]
–	882.09 ± 0.71	1270 ± 3

Clc1ccc(Cl)c(Cl)c1 [1,2,4-trichlorobenzene] + C1CCOC1
Details	mass density [kg/m3]	speed of sound [m/s]
x2 = 0	1447.66 ± 1.9	1272 ± 3
x2 = 0.0358	1431.9 ± 1.9	1303 ± 3
x2 = 0.1451	1382.41 ± 1.8	1326 ± 3
x2 = 0.2456	1334.05 ± 1.7	1346 ± 3
x2 = 0.3483	1282.95 ± 1.6	1355 ± 3
x2 = 0.4617	1224.12 ± 1.4	1352 ± 3
x2 = 0.6012	1147.15 ± 1.3	1339 ± 3
x2 = 0.7076	1083.62 ± 1.2	1327 ± 3
x2 = 0.7639	1048.78 ± 1.1	1320 ± 3
x2 = 0.8162	1014.57 ± 1.1	1313 ± 3
x2 = 0.8743	975.21 ± 1.1	1305 ± 3
x2 = 0.9351	931.35 ± 1.1	1300 ± 3
x2 = 0.9642	909.82 ± 1.1	1298 ± 3

Cc1ccc(Cl)cc1 [4-chlorotoluene] + C1CCOC1
Details	mass density [kg/m3]	speed of sound [m/s]
x2 = 0	1064.21 ± 0.97	1296 ± 3
x2 = 0.0653	1054.92 ± 0.96	1305 ± 3
x2 = 0.168	1040.16 ± 0.93	1308 ± 3
x2 = 0.3251	1015.77 ± 0.89	1308 ± 3
x2 = 0.4558	994.13 ± 0.85	1304 ± 3
x2 = 0.5489	977.7 ± 0.83	1301 ± 3
x2 = 0.6335	962.01 ± 0.82	1296 ± 3
x2 = 0.7021	948.73 ± 0.8	1293 ± 3
x2 = 0.7609	936.9 ± 0.79	1288 ± 3
x2 = 0.8226	923.96 ± 0.78	1284 ± 3
x2 = 0.906	905.08 ± 0.77	1280 ± 3
x2 = 0.941	896.99 ± 0.76	1277 ± 3

C1CCOC1 [tetrahydrofuran] + Clc1ccc(Cl)c(Cl)c1
x1 = 1
Details	mass density [kg/m3]	speed of sound [m/s]
–	882.09 ± 0.71	1270 ± 3

C1CCOC1 [tetrahydrofuran] + Clc1ccccc1Cl
x1 = 1
Details	mass density [kg/m3]	speed of sound [m/s]
–	882.09 ± 0.71	1270 ± 3

C1CCOC1 [tetrahydrofuran] + Cc1ccc(Cl)cc1
x1 = 1
Details	mass density [kg/m3]	speed of sound [m/s]
–	882.09 ± 0.71	1270 ± 3

C1CCOC1 [tetrahydrofuran] + Cc1cccc(Cl)c1
x1 = 1
Details	mass density [kg/m3]	speed of sound [m/s]
–	882.09 ± 0.71	1270 ± 3

Cc1cccc([N+](=O)[O-])c1 [3-nitrotoluene] + C1CCOC1
Details	mass density [kg/m3]	speed of sound [m/s]
x2 = 0	1149.67 ± 1.2	2100 ± 3
x2 = 0.0914	1132.22 ± 1.1	2093 ± 3
x2 = 0.1522	1120.11 ± 1.1	2029 ± 3
x2 = 0.2026	1109.64 ± 1.1	1969 ± 3
x2 = 0.3146	1085.13 ± 1	1847 ± 3
x2 = 0.4209	1060.02 ± 0.99	1719 ± 3
x2 = 0.5476	1027.61 ± 0.93	1588 ± 3
x2 = 0.6024	1012.66 ± 0.91	1542 ± 3
x2 = 0.7519	968.47 ± 0.86	1438 ± 3
x2 = 0.8415	939.33 ± 0.84	1380 ± 3
x2 = 0.9324	907.47 ± 0.82	1321 ± 3

Cc1cccc(Cl)c1 [3-chlorotoluene] + C1CCOC1
Details	mass density [kg/m3]	speed of sound [m/s]
x2 = 0	1066.01 ± 0.98	1279 ± 3
x2 = 0.0662	1055.82 ± 0.97	1293 ± 3
x2 = 0.1944	1036.15 ± 0.93	1313 ± 3
x2 = 0.2787	1022.98 ± 0.9	1319 ± 3
x2 = 0.3891	1004.96 ± 0.87	1324 ± 3
x2 = 0.5228	981.71 ± 0.84	1325 ± 3
x2 = 0.6399	960.03 ± 0.82	1320 ± 3
x2 = 0.7368	941.06 ± 0.8	1313 ± 3
x2 = 0.7972	928.35 ± 0.79	1307 ± 3
x2 = 0.8601	914.63 ± 0.77	1300 ± 3
x2 = 0.9208	900.75 ± 0.76	1290 ± 3
x2 = 0.945	895.28 ± 0.76	1287 ± 3
x2 = 0.9739	888.4 ± 0.75	1282 ± 3

Reference: the NIST ThermoML archive (doi:10.1016/j.fluid.2011.07.018)
